Reference: PMC7300217, “Surfactin Like Broad Spectrum Antimicrobial Lipopeptide Co-produced With Sublancin From Bacillus subtilis Strain A52: Dual Reservoir of Bioactives” (Frontiers in Microbiology, 2020)

How the values were obtained:
[1] = system: C. aurius 470126 (clinical isolate); assay: MIC, microtiter plate dilution assay; assay type: cell-based; conditions: 5 × 10^5 CFU/ml, 37°C, OD600 after 48 h, triplicate
Experimental: (§1) The antimicrobial activity was tested by well diffusion assay as mentioned earlier ([Singh et al., 2014]). Strain A52 was grown for 24 h in 500 ml of nutrient broth (NB, Hi-media, India) using 1000 ml flask and subsequently cells were removed by centrifugation (10,000 rpm for 15 min at 4°C). Supernatant was filtered through 0.22 μm filter (Millipore, United States) to obtain cell-free fermented broth (CFB) that was used for antimicrobial assay (50 μl) against various indicator strains and the activity was measured as diameter of inhibition zone. Test strains used were Staphylococcus aureus (MTCC 1430), Bacillus subtilis (MTCC 121), B. firmus (MTCC 488), B. licheniformis (MTCC 429), B. thuringiensis (MTCC 1953), Escherichia coli (MTCC 1610), Micrococcus luteus (MTCC 106), Steptococcus pyrogens (MTCC 1928), S. anginosus (MTCC 1929), S. oralis (MTCC 2696), S. mutans (MTCC 497), Candida albicans (MTCC 1637), C. albicans (MTCC 183), C. albicans (MTCC 227), C. tropicalis (MTCC 184), C. glabrata (MTCC 3019), C. haemulonii (MTCC 2766), and C. inconsplicue (MTCC 1074). The phytopathogenic fungi employed in this study were Alternaria brassicicola (MTCC 2102), Colletotrichum acutatum (MTCC 1037), and Fusarium moniliforme (MTCC 158). Clinical isolates of Candida were provided by National Culture Collection of Pathogenic Fungi (NCCPF), PGIMER, Chandigarh, India.
(§2) The minimum inhibitory concentration (MIC) of HPLC purified peptides was evaluated by using microtiter plate dilution assay. The peptide concentration was estimated using BCA protein assay (Thermo Fisher Scientific, United States) method as described by manufacturer. Actively growing test strains (5 × 10^5 CFU/ml) were inoculated in a 96-well plate with different concentrations of the peptides and plates were incubated for 24–48 h at 37°C (final volume in each well is 200 μl). OD was measured at 600 nm after 24 and 48 h for bacteria and yeast, respectively, using ELISA microplate reader (Thermo, United States). MIC against phytopathogenic fungi was determined using 96-well microtiter plate assay ([Kaur et al., 2016]). In 96-well microplates, 100 μl of fungal spore suspension (1 × 10^5 spores/ml) prepared in potato dextrose broth (PDB, Hi-media, India) was mixed with100 μl of fresh PDB containing different concentrations of lipopeptide. Control well contained 100 μl of fungal spore suspension and 100 μl of only medium. The microplates were incubated at 25°C and readings were recorded at 600 nm after 48 h. The lowest concentration showing no growth was considered as MIC. Each test was done in triplicate and optical density (OD600) of peptide treated wells were compared with uninoculated wells (blank medium control).

C. glabrata MTCC 3019 = assay: MIC, microtiter plate dilution assay; assay type: cell-based; conditions: 5 × 10^5 CFU/ml, 37°C, OD600 after 48 h, triplicate
Experimental: as §1, §2

[2] = system: C. haemulonii 470125 (clinical isolate); assay: MIC, microtiter plate dilution assay; assay type: cell-based; conditions: 5 × 10^5 CFU/ml, 37°C, OD600 after 48 h, triplicate
Experimental: as §1, §2

C. haemulonii MTCC 2766 = assay: MIC, microtiter plate dilution assay; assay type: cell-based; conditions: 5 × 10^5 CFU/ml, 37°C, OD600 after 48 h, triplicate
Experimental: as §1, §2

[3] = system: C. inconsplicue MTCC 1074; assay: MIC, microtiter plate dilution assay; assay type: cell-based; conditions: 5 × 10^5 CFU/ml, 37°C, OD600 after 48 h, triplicate
Experimental: as §1, §2

[4] = system: C. krusei 440009 (clinical isolate); assay: MIC, microtiter plate dilution assay; assay type: cell-based; conditions: 5 × 10^5 CFU/ml, 37°C, OD600 after 48 h, triplicate
Experimental: as §1, §2

[5] = system: C. parasilosis 450030 (clinical isolate); assay: MIC, microtiter plate dilution assay; assay type: cell-based; conditions: 5 × 10^5 CFU/ml, 37°C, OD600 after 48 h, triplicate
Experimental: as §1, §2

[6] = system: C. rugos 470141 (clinical isolate); assay: MIC, microtiter plate dilution assay; assay type: cell-based; conditions: 5 × 10^5 CFU/ml, 37°C, OD600 after 48 h, triplicate
Experimental: as §1, §2

C. tropicalis MTCC 184 = assay: MIC, microtiter plate dilution assay; assay type: cell-based; conditions: 5 × 10^5 CFU/ml, 37°C, OD600 after 48 h, triplicate
Experimental: as §1, §2

S. anginosus MTCC1929 = assay: MIC, microtiter plate dilution assay; assay type: cell-based; conditions: 5 × 10^5 CFU/ml, 37°C, OD600 after 24 h, triplicate
Experimental: as §1, §2

S. pyogenes MTCC 1928 = assay: MIC, microtiter plate dilution assay; assay type: cell-based; conditions: 5 × 10^5 CFU/ml, 37°C, OD600 after 24 h, triplicate
Experimental: as §1, §2

[7] = system: C. albicans 400054 (clinical isolate); assay: MIC, microtiter plate dilution assay; assay type: cell-based, Candida albicans; conditions: 5 × 10^5 CFU/ml, 37°C, OD600 after 48 h, triplicate
Experimental: as §1, §2

C. albicans MTCC 1637 = assay: MIC, microtiter plate dilution assay; assay type: cell-based, Candida albicans; conditions: 5 × 10^5 CFU/ml, 37°C, OD600 after 48 h, triplicate
Experimental: as §1, §2

C. albicans MTCC 183 = assay: MIC, microtiter plate dilution assay; assay type: cell-based, Candida albicans; conditions: 5 × 10^5 CFU/ml, 37°C, OD600 after 48 h, triplicate
Experimental: as §1, §2

C. albicans MTCC 227 = assay: MIC, microtiter plate dilution assay; assay type: cell-based, Candida albicans; conditions: 5 × 10^5 CFU/ml, 37°C, OD600 after 48 h, triplicate
Experimental: as §1, §2

S. aureus MTCC 1430 [8] = assay: Time kill assay; assay type: cell-based, Staphylococcus aureus; conditions: 5X MIC, cells in PBS, CFU plated on nutrient agar
Experimental: Purified AMPs were used to perform time kill assay against S. aureus MTCC 1430 as mentioned earlier ([Baindara et al., 2016]). Actively growing bacterial culture (0.2–0.3 OD at 600 nm) was centrifuged (10,000 rpm for 15 min at 4°C) and washed thrice with sterile PBS buffer. […] Upon incubation for different time intervals, cells were removed from reaction mixture by centrifugation and washed with PBS buffer. Bacterial culture without AMP treatment was used as negative control. Samples were withdrawn at the end of different treatment time points starting from 0 to 8 h, bacterial cells were pelleted, serially diluted, and cell suspensions were plated on nutrient agar plates. For each treatment, negative controls were also processed under identical conditions and plated on NA. CFU at different time intervals were recorded after overnight incubation at 37°C.

S. aureus MTCC 1430 [9] = assay: Transmission electron microscopy of treated cells; assay type: cell-based, Staphylococcus aureus; conditions: 2X and 5X MIC, 37°C overnight
Experimental: The effect of peptide on cell membrane was determined by scanning electron microscopy (SEM) and transmission electron microscopy (TEM) after treatment with AMPs. For this, test strains S. aureus MTCC 1430 and C. albicans MTCC 183 were cultured to mid-log phase in respective media. The cells were harvested by centrifugation at 10,000 × g for 10 min, washed thrice with 1X PBS, and re-suspended to adjust an OD600 of 0.2. […] Following the incubation, cells were processed for SEM and TEM as described ([Raje et al., 2006]). The specimens were completely dried using freeze drier, coated with gold, and visualized under a scanning electron microscope (ZEISS, Germany). For TEM (JEOL, JEM 2100, United States), cells were treated with peptide, washed, and subjected to negative stain 0.1% sodium phosphotungstate (Sigma, United States) for visualization. Effect of A52 lipopeptide on fungal spore was observed through a phase contrast microscope (Nickon H600L, Japan).

Glu^1-Leu/Ile^2-Leu^3-Val^4-Asp^5-Leu^6-Leu/Ile^7 and a β-OH hexadecane fatty acid chain (lariat or depsi) [Lipopeptide A52, cyclic surfactin-like lipopeptide, 7 amino acids and C16 β-hydroxy fatty acid, 1061.9 Da, from B. subtilis strain A52]
MIC value, C. aurius 470126 [1]: 26 µg/mL | MIC value, C. glabrata MTCC 3019 (C. glabrata MTCC 3019): 16 µg/mL | MIC value, C. haemulonii 470125 [2]: 28 µg/mL | MIC value, C. haemulonii MTCC 2766 (C. haemulonii MTCC 2766): 20 µg/mL | MIC value, C. inconsplicue MTCC 1074 [3]: 16 µg/mL | MIC value, C. krusei 440009 [4]: 12 µg/mL | MIC value, C. parasilosis 450030 [5]: 28 µg/mL | MIC value, C. rugos 470141 [6]: 16 µg/mL | MIC value, C. tropicalis MTCC 184 (C. tropicalis MTCC 184): 12 µg/mL | MIC value, S. anginosus MTCC1929 (S. anginosus MTCC1929): 4 µg/mL | MIC value, S. pyogenes MTCC 1928 (S. pyogenes MTCC 1928): 2 µg/mL | MIC value, C. albicans 400054 [7]: 16 µg/mL | MIC value, C. albicans MTCC 1637 (C. albicans MTCC 1637): 28 µg/mL | MIC value, C. albicans MTCC 183 (C. albicans MTCC 183): 12 µg/mL | MIC value, C. albicans MTCC 227 (C. albicans MTCC 227): 24 µg/mL | time of treatment to complete killing / complete reduction of bacterial load (S. aureus MTCC 1430 [8]): ≤ 7 h | cell morphology in TEM images (S. aureus MTCC 1430 [9]): wall rupturing and cellular lysis
